Test results from the CheMixHub viscosity set.
± gives the uncertainty stated by the source.

Test: xn = mol fraction of the nth substance listed

CC(=O)CC(C)C + CCCCOC(C)=O
298.15 K, 101.33 kPa
Details	viscosity [mPa·s]
x1 = 0.128	0.66 ± 0.007
x1 = 0.2471	0.643 ± 0.007
x1 = 0.3594	0.628 ± 0.006
x1 = 0.4715	0.612 ± 0.006
x1 = 0.5881	0.595 ± 0.006
x1 = 0.6863	0.583 ± 0.006
x1 = 0.7901	0.57 ± 0.006
x1 = 0.8902	0.556 ± 0.006

CCCCCCO + CCCCCCCC
viscosity [mPa·s]
Details	293.15 K	298.15 K	303.15 K	308.15 K	313.15 K
100 kPa, x2 = 0.0423	4.68 ± 0.055	4.014 ± 0.047	3.464 ± 0.041	3.004 ± 0.036	2.618 ± 0.031
100 kPa, x2 = 0.0824	4.117 ± 0.049	3.546 ± 0.042	3.072 ± 0.037	2.675 ± 0.032	2.34 ± 0.028
100 kPa, x2 = 0.1636	3.198 ± 0.038	2.775 ± 0.033	2.423 ± 0.029	2.126 ± 0.026	1.876 ± 0.023
100 kPa, x2 = 0.2691	2.319 ± 0.028	2.037 ± 0.025	1.8 ± 0.022	1.599 ± 0.02	1.426 ± 0.018
100 kPa, x2 = 0.3407	1.877 ± 0.023	1.663 ± 0.02	1.482 ± 0.018	1.327 ± 0.017	1.193 ± 0.015
100 kPa, x2 = 0.3897	1.634 ± 0.02	1.457 ± 0.018	1.306 ± 0.016	1.176 ± 0.015	1.064 ± 0.014
100 kPa, x2 = 0.4731	1.303 ± 0.016	1.176 ± 0.015	1.065 ± 0.014	0.969 ± 0.013	0.884 ± 0.012
100 kPa, x2 = 0.5241	1.148 ± 0.015	1.043 ± 0.013	0.95 ± 0.012	0.869 ± 0.011	0.797 ± 0.011
100 kPa, x2 = 0.5779	1.011 ± 0.013	0.925 ± 0.012	0.848 ± 0.011	0.779 ± 0.01	0.718 ± 0.01
100 kPa, x2 = 0.6611	0.851 ± 0.011	0.785 ± 0.011	0.725 ± 0.01	0.671 ± 0.009	0.622 ± 0.009
100 kPa, x2 = 0.753	0.719 ± 0.01	0.667 ± 0.009	0.62 ± 0.009	0.577 ± 0.008	0.537 ± 0.008
100 kPa, x2 = 0.8903	0.582 ± 0.008	0.543 ± 0.008	0.508 ± 0.008	0.475 ± 0.007	0.445 ± 0.007
100 kPa, x2 = 0.9572	0.533 ± 0.008	0.502 ± 0.008	0.468 ± 0.007	0.438 ± 0.007	0.411 ± 0.007
100 kPa, x2 = 0.9715	0.524 ± 0.008	0.491 ± 0.007	0.461 ± 0.007	0.432 ± 0.007	0.406 ± 0.007
101.33 kPa, x2 = 0.051	–	4.054 ± 0.025	–	–	–
101.33 kPa, x2 = 0.1118	–	3.29 ± 0.02	–	–	–
101.33 kPa, x2 = 0.1835	–	2.593 ± 0.016	–	–	–
101.33 kPa, x2 = 0.3569	–	1.552 ± 0.01	–	–	–
101.33 kPa, x2 = 0.5094	–	1.074 ± 0.007	–	–	–
101.33 kPa, x2 = 0.5642	–	0.955 ± 0.006	–	–	–
101.33 kPa, x2 = 0.6167	–	0.857 ± 0.006	–	–	–
101.33 kPa, x2 = 0.6701	–	0.77 ± 0.005	–	–	–
101.33 kPa, x2 = 0.7288	–	0.686 ± 0.005	–	–	–
101.33 kPa, x2 = 0.8387	–	0.566 ± 0.004	–	–	–
101.33 kPa, x2 = 0.937	–	0.511 ± 0.004	–	–	–

CC(=O)CC(C)C + O=C1CCCCC1
298.15 K, 101 kPa
Details	viscosity [mPa·s]
x1 = 0.1218	1.58 ± 0.01
x1 = 0.2067	1.371 ± 0.012
x1 = 0.3146	1.163 ± 0.01
x1 = 0.3931	1.037 ± 0.009
x1 = 0.534	0.872 ± 0.008
x1 = 0.6373	0.773 ± 0.007
x1 = 0.7694	0.672 ± 0.007
x1 = 0.888	0.599 ± 0.006

CC(=O)CC(C)C + CCCCCO
viscosity [mPa·s]
Details	x1 = 0.1011	x1 = 0.1974	x1 = 0.304	x1 = 0.4023	x1 = 0.5022	x1 = 0.6064	x1 = 0.7079	x1 = 0.7955	x1 = 0.8962
298.15 K, 101 kPa	2.47 ± 0.03	1.89 ± 0.02	1.46 ± 0.02	1.2 ± 0.02	1 ± 0.01	0.856 ± 0.011	0.738 ± 0.009	0.668 ± 0.008	0.592 ± 0.008
298.15 K, 101.3 kPa	2.47 ± 0.068	1.89 ± 0.052	1.46 ± 0.04	1.2 ± 0.033	1 ± 0.028	0.856 ± 0.024	0.738 ± 0.02	0.668 ± 0.018	0.592 ± 0.016
303.15 K, 101.3 kPa	2.2 ± 0.06	1.7 ± 0.047	1.32 ± 0.036	1.1 ± 0.03	0.919 ± 0.025	0.792 ± 0.022	0.694 ± 0.019	0.624 ± 0.017	0.558 ± 0.015
308.15 K, 101.3 kPa	1.96 ± 0.054	1.53 ± 0.042	1.2 ± 0.033	1.01 ± 0.028	0.846 ± 0.023	0.735 ± 0.02	0.646 ± 0.018	0.589 ± 0.016	0.53 ± 0.015
313.15 K, 101.3 kPa	1.75 ± 0.048	1.38 ± 0.038	1.09 ± 0.03	0.915 ± 0.025	0.781 ± 0.022	0.683 ± 0.019	0.601 ± 0.017	0.555 ± 0.015	0.501 ± 0.014

O=C1CCCCC1 + OCCO
293.15 K, 101.33 kPa
Details	viscosity [mPa·s]
x2 = 0.1495	2.735 ± 1
x2 = 0.2349	3.114 ± 1
x2 = 0.293	3.566 ± 1
x2 = 0.4345	4.882 ± 1
x2 = 0.5042	5.922 ± 1
x2 = 0.5172	6.179 ± 1
x2 = 0.6565	9.855 ± 1
x2 = 0.6965	11.02 ± 1
x2 = 0.7152	11.2 ± 1
x2 = 0.7398	12.4 ± 1
x2 = 0.8522	17.59 ± 1
x2 = 0.8845	18.73 ± 1
